From patent publication US7820655B2, “Ethanol or 1,2-ethanediol cyclohexyl antibiotic derivatives” (Actelion Pharmaceuticals Ltd., priority 2006, dated 2010)
≈ marks a conversion by molar mass, not a printed value.

What was measured:
Format in all cases: cell-based
[1] = system: M. catarrhalis A894; test: MIC by broth microdilution (NCCLS), M. catarrhalis A894; details: Moraxella catarrhalis, cation-adjusted Mueller-Hinton Broth, pH 7.2-7.3
Description: (§1) These assays have been performed following the description given in “Methods for dilution Antimicrobial Susceptibility Tests for Bacteria that Grow Aerobically, 4th ed.; Approved standard: NCCLS Document M7-A4; National Committee for Clinical Laboratory Standards Villanova, Pa., USA, 1997”. Minimal inhibitory concentrations (MICs; mg/l) were determined in cation-adjusted Mueller-Hinton Broth (BBL) by a microdilution method following NCCLS guidelines (National Committee for Clinical Laboratory Standards. Methods for Dilution Antimicrobial Susceptibility). The pH of the test medium was 7.2-7.3.

[2] = system: S. Pneumoniae 49619; test: MIC by broth microdilution (NCCLS), S. Pneumoniae 49619; details: Streptococcus pneumoniae, cation-adjusted Mueller-Hinton Broth, pH 7.2-7.3
Description: as §1

[3] = system: S. aureus A798; test: MIC by broth microdilution (NCCLS), S. aureus A798; details: Staphylococcus aureus, cation-adjusted Mueller-Hinton Broth, pH 7.2-7.3
Description: as §1

Row | MIC [1] | MIC [2] | MIC [3] | Structure (SMILES)
1 | ≤ 0.031 µg/mL | 0.063 µg/mL (≈ 0.127 µM) | ≤ 0.031 µg/mL | COc1ccc2nccc([C@@H](O)[C@H](O)[C@H]3CC[C@H](NCc4ccc5c(n4)NC(=O)CS5)CC3)c2n1 [Example 3, 6-(trans-{4-[(1R,2R)-1,2-dihydroxy-2-(6-methoxy-[1,5]naphthyridin-4-yl)-ethyl]-cyclohexylamino}-methyl)-4H-pyrido[3,2-b][1,4]thiazin-3-one]
2 | ≤ 0.031 µg/mL | 0.063 µg/mL (≈ 0.134 µM) | ≤ 0.031 µg/mL | COc1cnc2cccc([C@@H](O)[C@H](O)[C@H]3CC[C@H](NC/C=C/c4cc(F)ccc4F)CC3)c2n1 [Example 10, (1R,2R)-1-{trans-4-[(E)-3-(2,5-difluoro-phenyl)-allylamino]-cyclohexyl}-2-(3-methoxy-quinoxalin-5-yl)-ethane-1,2-diol]
3 | 0.031 µg/mL (≈ 0.0669 µM) | 0.125 µg/mL (≈ 0.27 µM) | 0.063 µg/mL (≈ 0.136 µM) | COc1ccc2nccc(C[C@@H](O)[C@H]3CC[C@H](NCc4ccc5c(n4)NC(=O)CO5)CC3)c2n1 [Example 12, 6-(trans{4-[1-(1R)-hydroxy-2-(6-methoxy-[1,5]naphthyridin-4-yl)-ethyl]-cyclohexylamino}-methyl)-4H-pyrido[3,2-b][1,4]oxazin-3-one]
